Measurements as given in patent US9334264B2, “NAMPT inhibitors” (AbbVie Inc., priority 2012, dated 2016).

Columns and labels:
[1] = biological target: NAMPT (human, recombinant, C-terminally His-tagged) (Homo sapiens, UniProt P43490); assay: Time-Resolved Fluorescence Resonance Energy Transfer (TR-FRET) Binding Assay of NAMPT; details: absence of substrates; 6.8 nM NAMPT, 200 nM probe, equilibrated 3 hours
Outline: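 Compounds (typically 11 half-log dilutions, 2% DMSO final) equilibrated 3 h at room temperature with 6.8 nM human C-His NAMPT, 1 nM Tb-anti-His antibody and 200 nM fluorescent competitive probe in pH 7.5 HEPES buffer. IC50 derived by logistic fit of normalized TR-FRET ratio (520/495 nm).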

NAMPT = NAMPT (Homo sapiens, UniProt P43490); assay: Time-Resolved Fluorescence Resonance Energy Transfer (TR-FRET) Binding Assay of NAMPT with PRPP; details: 200 μM PRPP and 2.5 mM ATP; 2 nM NAMPT, 2 nM probe, equilibrated 16 hours
Sequence of NAMPT (P43490 whole entry): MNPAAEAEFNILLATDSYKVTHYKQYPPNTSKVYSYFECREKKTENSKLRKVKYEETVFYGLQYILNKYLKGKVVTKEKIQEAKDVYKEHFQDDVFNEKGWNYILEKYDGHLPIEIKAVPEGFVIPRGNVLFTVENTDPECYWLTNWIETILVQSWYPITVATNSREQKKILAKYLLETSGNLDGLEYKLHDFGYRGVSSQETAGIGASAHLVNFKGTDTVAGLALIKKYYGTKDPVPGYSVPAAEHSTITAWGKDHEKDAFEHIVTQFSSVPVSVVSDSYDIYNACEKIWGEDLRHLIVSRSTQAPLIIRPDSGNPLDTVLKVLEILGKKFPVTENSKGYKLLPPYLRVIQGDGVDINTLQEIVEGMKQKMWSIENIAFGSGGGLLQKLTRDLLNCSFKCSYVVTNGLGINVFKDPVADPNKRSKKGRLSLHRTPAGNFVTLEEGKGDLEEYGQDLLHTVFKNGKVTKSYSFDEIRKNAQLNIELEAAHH
Outline: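 Compounds were equilibrated for 16 hours before TR-FRET readout, with substrates present (200 μM PRPP, 2.5 mM ATP) to permit enzymatic modification. Final mix: 2 nM His-tagged NAMPT, 2 nM probe, 1 nM Tb-anti-His antibody, 2% DMSO.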

Sequence of NAMPT (human, recombinant, C-terminally His-tagged) (P43490 whole entry): as above

O=C(NCCCn1ccnc1)c1cnc(N(Cc2ccc(F)cc2)C(=O)CN2CCOCC2)s1 [Example 40, 2-[(4-fluorobenzyl)(morpholin-4-ylacetyl)amino]-N-[3-(1H-imidazol-1-yl)propyl]-1,3-thiazole-5-carboxamide]
IC50 [1]: 2200 nM
IC50 (NAMPT): 1.99 nM

CCOCC(O)CNC(=O)N(Cc1ccc(C#N)cc1)c1ncc(C(=O)NCCCn2ccnc2)s1 (centres unmarked) [Example 143, 2-{(4-cyanobenzyl)[(3-ethoxy-2-hydroxypropyl)carbamoyl]amino}-N-[3-(1H-imidazol-1-yl)propyl]-1,3-thiazole-5-carboxamide]
IC50 [1]: > 10000 nM
IC50 (NAMPT): 13.7 nM

COCCNC(=O)N(Cc1ccc(F)cc1)c1ncc(C(=O)NCCCn2ccnc2)s1 [Example 82, 2-{(4-fluorobenzyl)[(2-methoxyethyl)carbamoyl]amino}-N-[3-(1H-imidazol-1-yl)propyl]-1,3-thiazole-5-carboxamide]
IC50 [1]: 7540 nM
IC50 (NAMPT): 1.72 nM

O=C(NCCCn1ccnc1)c1cnc(N(Cc2ccc(F)cc2)C(=O)NC2CCOC2)s1 (centres unmarked) [Example 91, 2-[(4-fluorobenzyl)(tetrahydrofuran-3-ylcarbamoyl)amino]-N-[3-(1H-imidazol-1-yl)propyl]-1,3-thiazole-5-carboxamide]
IC50 [1]: 8690 nM
IC50 (NAMPT): 0.543 nM

COCCC(=O)N(CCCNC(C)=O)c1ncc(C(=O)NCCCn2ccnc2)s1 [Example 201, 2-{[3-(acetylamino)propyl](3-methoxypropanoyl)amino}-N-[3-(1H-imidazol-1-yl)propyl]-1,3-thiazole-5-carboxamide]
IC50 [1]: > 10000 nM
IC50 (NAMPT): 0.457 nM

CCCOCCNC(=O)N(Cc1ccc(F)cc1)c1ncc(C(=O)NCCCn2ccnc2)s1 [Example 78, 2-{(4-fluorobenzyl)[(2-propoxyethyl)carbamoyl]amino}-N-[3-(1H-imidazol-1-yl)propyl]-1,3-thiazole-5-carboxamide]
IC50 [1]: 2900 nM
IC50 (NAMPT): 0.969 nM

COCCN(C(=O)Cc1ccccn1)c1ncc(C(=O)NCCCn2ccnc2)s1 [Example 213, N-[3-(1H-imidazol-1-yl)propyl]-2-[(2-methoxyethyl)(pyridin-2-ylacetyl)amino]-1,3-thiazole-5-carboxamide]
IC50 [1]: 9860 nM
IC50 (NAMPT): 0.411 nM

O=C(NCCCn1ccnc1)c1cnc(N(CC(=O)N2CCOCC2)Cc2ccc(F)cc2)s1 [Example 22, 2-{(4-fluorobenzyl)[2-(morpholin-4-yl)-2-oxoethyl]amino}-N-[3-(1H-imidazol-1-yl)propyl]-1,3-thiazole-5-carboxamide]
IC50 [1]: 384 nM
IC50 (NAMPT): 60.2 nM

COCCC(=O)N(Cc1scnc1C)c1ncc(C(=O)NCCCn2ccnc2)s1 [Example 99, N-[3-(1H-imidazol-1-yl)propyl]-2-{(3-methoxypropanoyl)[(4-methyl-1,3-thiazol-5-yl)methyl]amino}-1,3-thiazole-5-carboxamide]
IC50 [1]: 3560 nM
IC50 (NAMPT): 1.5 nM

CCC(CNC(=O)N(Cc1ccc(F)cc1)c1ncc(C(=O)NCCCn2ccnc2)s1)OC (centres unmarked) [Example 90, 2-{(4-fluorobenzyl)[(2-methoxybutyl)carbamoyl]amino}-N-[3-(1H-imidazol-1-yl)propyl]-1,3-thiazole-5-carboxamide]
IC50 [1]: > 10000 nM
IC50 (NAMPT): 2.25 nM

COCC(=O)N(CCC(C)C)c1ncc(C(=O)NCCCn2ccnc2)s1 [Example 151, N-[3-(1H-imidazol-1-yl)propyl]-2-[(methoxyacetyl)(3-methylbutyl)amino]-1,3-thiazole-5-carboxamide]
IC50 [1]: 219 nM
IC50 (NAMPT): 0.412 nM

CC(C)CCN(C(=O)Cc1ccc(F)cc1)c1ncc(C(=O)NCCCn2ccnc2)s1 [Example 139, 2-{[(4-fluorophenyl)acetyl](3-methylbutyl)amino}-N-[3-(1H-imidazol-1-yl)propyl]-1,3-thiazole-5-carboxamide]
IC50 [1]: 56.1 nM
IC50 (NAMPT): 0.251 nM

COCCC(=O)N(CCc1cccc(F)c1)c1ncc(C(=O)NCCCn2ccnc2)s1 [Example 104, 2-{[2-(3-fluorophenyl)ethyl](3-methoxypropanoyl)amino}-N-[3-(1H-imidazol-1-yl)propyl]-1,3-thiazole-5-carboxamide acetate (1:1)]
IC50 [1]: 445 nM
IC50 (NAMPT): 1.31 nM
